In publication PMC10714399, “Open Source Antibiotics: Simple Diarylimidazoles Are Potent against Methicillin-Resistant Staphylococcus aureus” (ACS Infectious Diseases, 2023):
Converted amounts (≈) assume the structure as drawn. Where two headings read alike, the source gives them in different places.

Columns and labels:
[1] = test system: MRC-5SV2 (human lung fibroblast cell line); test: Toxicity against MRC-5SV2; format: cell-based; settings: MRC5 cells
Procedure: (§1) ADME and toxicity for compounds were measured according to procedures outlined in the manuscript submitted in parallel to this one;2 other procedures were used for those compounds analysed by Monash University (in vitro ADME) or UCL (toxicity), both described in the main

[2] = Aqueous solubility; format: physicochemical; settings: NEU
[3] = test system: Staphylococcus aureus NCTC 13373 (mecA-positive; methicillin-resistant); test: In vitro antibacterial activity, MIC (UCL School of Pharmacy assay), MRSA; format: cell-based; settings: Staphylococcus aureus, UCL; read-out: MRSA MIC (UCL)
Outline: (§2)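 MIC determined over 32–0.03 μg/mL in 2-fold steps, with at most 2% DMSO, in isosensitest broth. Organisms were suspended in PBS to A600 0.1 (about 1 × 10^8 CFU/mL), diluted 1:100 and inoculated; vancomycin served as QC compound.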

[4] = Rat hepatocyte intrinsic clearance; format: in vitro ADME; settings: rat hepatocytes, NEU
[5] = LogD7.4 (Chrom Log D); format: physicochemical; settings: chromatographic system (Chrom Log D); pH 7.4, NEU; read-out: LogD 7.4 (NEU)
From the text: To guide our initial SAR exploration work, we obtained liver microsomal intrinsic clearance data for 5 of the 18 compounds assayed by CO-ADD (Supporting Information - CDCO Report and Supporting Information - Biology). We then acquired intrinsic clearance (CLint), plasma protein binding (PPB), and solubility data on further compounds throughout the SAR campaign (Supporting Information - Biology, Tables S3 and S4). […] The more polar compounds (lower LogD) had reduced PPB and were more metabolically stable.
Table S4. ADME and Pharmacokinetics: compounds only appearing in the Supplementary […]
MRSA Aqueous HLM CLint Rat Hep CLint
Cmpd MIC Solubility Human PPB (%) (µL/min/mg (µL/min/10x6 LogD7.4
(µg/mL) (µM) protein) cells)
as §1

[6] = test system: PMM (primary mouse macrophages); test: Toxicity against PMM; format: cell-based; settings: PMM
Procedure: as §1

[7] = test system: THP1; test: Toxicity against THP1; format: cell-based; settings: THP1 cells
From the text: Supplement id3c00286_si_002.xlsx, sheet "Series 2 Data" | column: THP1 TC50 (uM)

[8] = test system: U2OS; test: Toxicity against U2OS; format: cell-based; settings: U2OS cells
From the text: Supplement id3c00286_si_002.xlsx, sheet "Series 2 Data" | column: U2OS TC50 (uM)

[9] = test system: Enterococcus faecalis ATCC 51299 (vanA-positive; vancomycin-resistant); test: In vitro antibacterial activity, MIC (UCL), VRE; format: cell-based; settings: read-out: VRE MIC (UCL)
Outline: as §2

[10] = Human liver microsome intrinsic clearance; format: in vitro ADME; settings: human liver microsomes, NEU
[11] = In vitro metabolic stability, human liver microsomes (Monash); format: in vitro ADME
Procedure: (§3) The metabolic stability assay was performed by incubating each test compound with a suspension of liver microsomes (0.4 mg/mL protein, 1 μM substrate, 37 °C). Microsomes were purchased from XenoTech. The metabolic reaction was initiated by the addition of an NADPH-regenerating system and quenched at various time points over a 60 min incubation by the addition of acetonitrile containing metolazone as an internal standard. Control samples (containing no NADPH) were included (quenched at 2, 30, and 60 min) to monitor for potential degradation in the absence of cofactor. […]
(§4) d) In Vitro Metabolic Stability
(§5) The metabolic stability assay was performed by incubating each test compound with a suspension of liver
(§6) microsomes (0.4 mg/mL, 37°C). The metabolic reaction was initiated by the addition of an NADPH-regenerating
(§7) system and quenched at various time points over a 60 minute incubation by the addition of acetonitrile containing
(§8) metolazone as internal standard. Control samples (containing no NADPH) were included (quenched at 2, 30 and 60
(§9) minutes) to monitor for potential degradation in the absence of cofactor.
(§10) The human liver microsomes used in this experiment were supplied by XenoTech, lot # 1710084.The rat liver
(§11) microsomes used in this experiment were supplied by XenoTech, lot # 1610290. Microsomal incubations were
(§12) performed at a substrate concentration of 1 µM.
(§13) Data analysis and interpretation:
(§14) Substrate depletion as a function of time was analysed as described by Obach (1999) Drug Metab. Dispos., 27:1350-
(§15) 1359. Intrinsic clearance (CLint) values were classified at the limits of low and high clearance bands based on a
(§16) rearrangement of the well stirred model of hepatic elimination. It should be noted that the potential impact of
(§17) compound binding (either in microsomes or in blood) on the relationship between in vitro intrinsic clearance and
(§18) hepatic clearance in vivo has not been accounted for in these studies.
(§19) In Vitro Intrinsic Clearance
(§20) Species (µL/min/mg protein)
(§21) Low Clearance High Clearance
(§22) Experimental results are tabulated on the following page(s).
(§23) (1 picture or pasted object on this page, not shown here)

[12] = In vitro metabolic stability, rat liver microsomes (Monash); format: in vitro ADME
Procedure: as §3, §4, §5, §6, §7, §8, §9, §10, §11, §12, §13, §14, §15, §16, §17, §18, §19, §20, §21, §22, §23

[13] = Distribution coefficient estimation using chromatography, gLogD (Monash); format: physicochemical
From the text: Partition coefficient values (LogD) of the test compounds were estimated at pH 7.4 by the correlation of their chromatographic retention properties against the characteristics of a series of standard compounds with known partition coefficient values. The method employed is a gradient HPLC-based derivation of the method developed by Lombardo.[42] […]
c) Distribution Coefficient Estimation using Chromatography (gLogDpH)
Partition coefficient values (LogD) of the test compounds were estimated at pH 7.4 by correlation of their
chromatographic retention properties against the characteristics of a series of standard compounds with known
partition coefficient values. […]
(§24) In Vitro Intrinsic Clearance […]
as §22, §23

[14] = Kinetic solubility estimation using nephelometry (Monash); format: physicochemical; settings: for solubility kinetic at 30 min: kinetic from dmso stock
Procedure: Compound in DMSO was spiked into either pH 6.5 phosphate buffer or 0.01 M HCl (approximately pH 2.0) with the final DMSO concentration being 1%. […]
b) Kinetic Solubility Estimation using Nephelometry (SolpH)
Compound in DMSO was spiked into either pH 6.5 phosphate buffer or 0.01 M HCl (approx pH 2.0) with the final
DMSO concentration being 1%. After 30 minutes had elapsed, samples were then analysed via Nephelometry to
determine a solubility range. See Bevan and Lloyd (2000) Anal Chem, 72:1781-1787. […]
as §24, §22, §23

[15] = test system: Staphylococcus aureus ATCC 43300 MRSA; test: CO-ADD antibacterial assay (growth inhibition, MIC), MRSA; format: cell-based; settings: read-out: MRSA MIC (CO-ADD)
Procedure: Hit Confirmation of active compounds by whole cell growth inhibition assays was conducted as an 8-point dose response to determine the Minimum Inhibitory Concentration (MIC), in duplicate (n=2). The inhibition of growth is measured against those microorganisms that […]
Included in the Hit Confirmation were 5 bacteria: Escherichia coli, Klebsiella pneumoniae, Acinetobacter baumannii, Pseudomonas aeruginosa and Staphylococcus aureus, and 2 fungi Candida albicans and Cryptococcus neoformans. […]
Assay Parameters Bacteria Fungi HEK293 Haemolysis […]
Duplicate (n=2) Duplicate (n=2) Duplicate (n=2) Duplicate (n=2)
QC Control MIC: Control MIC: Control CC50: Control HC10:
Non-Binding Non-Binding TC, 384-well Polypropylene
Plates Surface (NBS), Surface (NBS), black wall/clear 384-well and 384-well plate 384-well plate bottom polystyrene 384-
Cation-adjusted Yeast Nitrogen DMEM
Media Mueller Hinton Base supplemented 0.9% NaCl
Hit Confirmation outcomes are detailed in individual Project reports, personalised for each Project Submission for each CO-ADD user.
Please see your data sheet with file extension P0XXX_HC_data.xlsx, for example CO-ADD Project P0100, P0100_HC_data.xlsx
Study: HC_data ID: HC-Procedures & Materials
Date: Last updated June 2018 Confidential Page 3 of 11
as §23
Samples were provided by the collaborator and stored frozen at -20 °C. Samples were prepared in DMSO and water to a final testing concentration of 32 µg/mL or 20 µM (unless otherwise indicated in the data sheet) and serially diluted 1:2 fold for 8 times. Each sample concentration was prepared in 384-well plates, non-binding surface plate (NBS; Corning 3640) for each bacterial/fungal strain, tissue-culture treated (TC-treated; Corning 3712/3764) black for mammalian cell types and polypropylene 384-well (PP; Corning 3657) for haemolysis assays, all in duplicate (n=2), and keeping the final DMSO concentration to a maximum of 0.5%. All the sample preparation was done using liquid handling robots. […]
detailed in the Data sheet for the individual Project.
All bacteria were cultured in Cation-adjusted Mueller Hinton broth (CAMHB) at 37 °C overnight. A sample of each culture was then diluted 40-fold in fresh broth and incubated at 37 °C for 1.5-3 h. The resultant mid-log phase cultures were diluted (CFU/mL measured by OD600), then added to each well of the compound containing plates, giving a cell density of 5×10^5 CFU/mL and a total volume of 50 µL. All the plates were covered and incubated at 37 °C for 18 h without shaking.
Inhibition of bacterial growth was determined measuring absorbance at 600 nm (OD600), using a Tecan M1000 Pro monochromator plate reader. The percentage of growth inhibition was calculated for each well, using the negative control (media only) and positive control (bacteria without inhibitors) on the same plate as references.
The percentage of growth inhibition was calculated for each well, using the negative control (media only) and positive control (bacteria without inhibitors) on the same plate. The MIC […]
by an inhibition ≥ 80%. In addition, the maximal percentage of growth inhibition is reported as DMax, indicating any compounds with partial activity.
Date: Last updated June 2018 Confidential Page 5 of 11
Material Code Brand/Supplier Cat No.
Compound preparation plate, Polypropylene PP Corning 3364
Assay Plates – Antimicrobial
Non-binding surface NBS 384w Corning 3640
Assay Plates – Cytotoxicity
Tissue culture treated Black/Clear bottom 384w Corning 3712
Assay Plates - Haemolysis PP-Haem Corning 3657 […]
Growth media - bacteria CAMHB Bacto Laboratories 212322
Culture agar - fungi YPD Becton Dickinson 242720
Growth media - fungi YNB Becton Dickinson 233520
Resazurin Sigma-Aldrich R7017
Dulbecco's Modified Eagle Medium DMEM Life Technologies 11995-073
Foetal Bovine Serum FBS Bovogen FFBS-500
0.9% NaCl Saline Baxter AHF7124
Sample Name Sample ID MW Conc. Solvent Source […]

Structure (SMILES): Fc1ccc(-c2c(-c3ccccn3)nc3ccccn23)cc1 [OSA_000859]
- MRC5 TC50 [1]: 10.3 µM
- Aqueous Solubility (NEU) [2]: 178 µM
- MIC [3]: 32 µg/mL (≈ 111 µM)
- Rat Hep CLint (NEU) [4]: 49.8 uL/min/10x6 cells
- chromatographic logD [5]: 3
- PMM TC50 [6]: 32 µM
- THP1 TC50 [7]: 17 µM
- U2OS TC50 [8]: 4.54 µM
- MIC [9]: > 32 µg/mL
- HLM CLint (NEU) [10]: 168 uL/min/mg protein

Structure (SMILES): c1ccc(-c2nc3n(c2-c2ccc4c(c2)OCO4)CCS3)nc1 [UNC-ALM-DAI-16]
- CLint, in vitro ([11]; NADPH): 37 µL/min/mg protein
- T1/2 ([11]; NADPH): 47 min
- CLint, in vitro ([12]; NADPH): 74 µL/min/mg protein
- T1/2 ([12]; NADPH): 23 min
- gLogD at pH 7.4 [13]: 1.6
- Sol 2.0 ([14]; 0.01 M HCl, approx pH 2.0): 25 to 50 µg/mL
- Sol 6.5 ([14]; pH 6.5 phosphate buffer): 12.5 to 25 µg/mL

Structure (SMILES): c1ccc(-c2nc3ccccn3c2-c2ccc3c(c2)OCO3)nc1 [OSA_000814]
- microsomal CLint at 1 µM ([11]; Monash, read-out: HLM Clint (Monash)): 47 µL/min/mg
- half-life at 1 µM ([11]; Monash, read-out: HLM t1/2 (Monash)): 37 min
- microsomal CLint at 1 µM ([12]; Monash, read-out: RLM Clint (Monash)): 99 µL/min/mg
- half-life at 1 µM ([12]; Monash, read-out: RLM t1/2 (Monash)): 18 min
- chromatographic logD ([13]; gradient HPLC retention against standard compounds, pH 7.4): 1.8
- MIC [15]: 32 µg/mL (≈ 101 µM)
- solubility kinetic at 30 min ([14]; 0.01 M HCl, simulated gastric fluid, pH 2.0, read-out: Sol (pH 2.0) (Monash)): > 100 µg/mL
- solubility kinetic at 30 min ([14]; pH 6.5 phosphate buffer, pH 6.5, aqueous buffer, read-out: Sol (pH 6.5) (Monash)): 25 to 50 µg/mL (≈ 79.3 to 159 µM)
